Laboratory results: article PMC9105583, “Stereoselective Synthesis and Anticancer Activity of 2,6-Disubstituted trans-3-Methylidenetetrahydropyran-4-ones” (Materials, 2022)
Read-outs that look alike come from different tables or passages of the source.

How the values were obtained:
[1] = test system: HL-60 cells; test: MTT assay, metabolic activity (cytotoxicity); assay type: cell-based, human; details: for IC50: 48 h incubation, MTT, mean ± SEM, read-out: IC50 HL-60
Experimental: (§1) Metabolic activity by MTT assay
(§2) The MTT (3-([…])-2,5-diphenyl tetrazolium bromide) assay was performed to assess the cytotoxicity of the investigated compounds. Briefly, HL-60, MCF-7 and HUVEC cells were seeded in 24-well plates at density of 8 × 10^4/mL. After 24 h incubation, cells were treated with various concentrations of the compounds and incubated for another 24 h or 48 h. Then, the cells were incubated with MTT solution (100 µL; 5 mg/mL in PBS) for 1.5 h and centrifuged. The formazan product was dissolved in DMSO, and the absorption was measured using FlexStation 3 Multi-Mode Microplate Reader (Molecular Devices, LLC, San Jose, CA, USA) at 560 nm. Assays were performed twice in triplicate for each analog.
(§3) The cytotoxic activity of the obtained methylidenetetrahydropyran-4-ones was investigated in two cancer cell lines, human promyelocytic leukemia (HL-60) and breast cancer adenocarcinoma (MCF-7), and in healthy umbilical vein endothelial cells (HUVEC), for comparison. An anticancer drug, carboplatin, was used as a reference compound. Metabolic activity of the cells was assessed after 48 h incubation with various concentrations of the analogs (Table 6). Purity of all final compounds was determined on the basis of their ^1H NMR spectra (signal-to-noise ratio and presence of unidentified signals) and was at least 98%, in most cases even over 99%.

[2] = test system: MCF-7 cells; test: MTT assay, metabolic activity (cytotoxicity); assay type: cell-based, human; details: mean ± SEM
Experimental: as §1, §2, §3

[3] = test system: HL-60 human leukemia cells; parameters: method as in PMID 32019209; details: cited from earlier work
[4] = test system: HUVEC cells; test: MTT assay, metabolic activity (cytotoxicity), normal cell line; assay type: cell-based, human; details: 48 h incubation, mean ± SEM
Experimental: as §1, §2, §3

[5] = test system: human cancer cell lines, including lymphoid leukemia L1210 and leukemia P388; parameters: method as in PMID 3693116; details: cited from earlier work
[6] = test system: Ehrlich ascites carcinoma; parameters: method as in PMID 3693116; details: cited from earlier work
[7] = Stability of the compound at room temperature; assay type: physicochemical
Experimental: Next, we made an attempt to transform the obtained 2-substituted-5-diethoxyphosphoryltetrahydropyran-4-ones 14a-d into target 2-substituted-5-methylidenetetrahydropyran-4-ones 15a-d, using Horner–Wadsworth–Emmons olefination. The reaction was carried out with 2 equivalents of K2CO3, 10 equivalents of formalin, THF as a solvent and room temperature for 3 h. Unfortunately, the obtained 3-methylidenetetrahydropyran-4-ones 15a-c,e, turned out to be unstable at room temperature and decomposed during column chromatography.

[8] = test system: mouse lymphocytic leukemia cells (L1210); parameters: method as in PMID 18078344; details: cited from earlier work
[9] = Homo sapiens, MCF7, 48 h incubation

Compound	IC50 ([1]; Homo sapiens, HL-60, 48 h) [µM]	IC50 [2, 9] [µM]	IC50 [1] [µM]	other results
C=C1C(=O)C[C@H](C(C)C)O[C@H]1CCCC (relative stereo) [Analog 13e, Trans-2-butyl-6-isopropyl-3-methylidenetetrahydro-4H-pyran-4-one]	78.8 ± 5.25	> 150		
C=C1C(=O)CC(C)(C)OC1C(C)C (stereo not drawn) [6-isopropyl-2,2-dimethyl-5-methylidenetetrahydropyran-4-one]				apoptosis [3]: induced apoptosis; cell cycle [3]: arrest of the cell cycle in the G2/M phase; cytotoxic activity [3]: very high cytotoxic activity
C=C1C(=O)C[C@H](CC)O[C@H]1C(C)C (relative stereo) [Analog 13a, Trans-6-ethyl-2-isopropyl-3-methylidenetetrahydro-4H-pyran-4-one]	21.3 ± 1	20.4 ± 0.35		
C=C1C(=O)C[C@H](c2ccc(OC)cc2)O[C@H]1C(C)C (relative stereo) [Analog 13j, Trans-2-isopropyl-6-(4-methoxyphenyl)-3-methylidenetetrahydro-4H-pyran-4-one]	< 4	9.11 ± 0.02	3.75 ± 0.07	IC50 ([4]; Homo sapiens, HUVEC): 4.25 ± 0.05 µM
C=C1C(=O)C[C@H]([c-]2cccc2)O[C@H]1C(C)C.[Fe+2].c1cc[cH-]c1 (relative stereo) [Analog 13m, Trans-6-ferrocenyl-2-isopropyl-3-methylidenetetrahydro-4H-pyran-4-one]			3.87 ± 0.16	IC50 ([2]; 48 h incubation): 5.73 ± 0.36 µM
C=C1C(=O)[C@]2(C)C(=O)O[C@@]34C[C@H](C)C(C(=O)O)=C[C@@H]3CCC[C@@H](C)C[C@@H](C)[C@H]1OC24 (single isomer, unassigned; (+)) [(+)-okilactomycin]				in vitro cytotoxicity [5]: exhibits in vitro cytotoxicity; in vivo activity [6]: in vivo activity
C=C1C(=O)C[C@H](c2ccccc2)O[C@H]1c1ccccc1 (relative stereo) [Analog 13i, Trans-3-methylidene-2,6-diphenyltetrahydro-4H-pyran-4-one]	36 ± 1.41	> 200		
C=C1COC(c2ccc(OC)cc2)CC1=O (stereo not drawn) [Analog 15d, 2-(4-Methoxyphenyl)-5-methylidenetetrahydro-4H-pyran-4-one]	163 ± 7.07	> 200		cytotoxic activity ([1]; HL-60 and MCF-7, 48 h): practically inactive; stable for a prolonged period of time [7]: at least 7 days
C=C1C(=O)C[C@H](c2ccc(OC)cc2)O[C@H]1c1ccccc1 (relative stereo) [Analog 13l, Trans-6-(4-methoxyphenyl)-3-methylidene-2-phenyltetrahydro-4H-pyran-4-one]	25 ± 0.94	203 ± 56		
C[C@H]1CCC/C=C\[C@H]2C=C[C@H](O)[C@H](CC(=O)O1)O2 [aspergillide C]				cytotoxic activity [8]: showed cytotoxic activity
N.N.O=C([O-])C1(C(=O)[O-])CCC1.[Pt+2] [Carboplatin, carboplatin, reference compound]			2.53 ± 0.2	IC50 ([2]; 48 h incubation): 3.76 ± 0.35 µM; IC50 [4]: 5.35 ± 0.05 µM
C=C1C(=O)C[C@H](c2ccccc2)O[C@H]1CCCC (relative stereo) [Analog 13h, Trans-2-buthyl-3-methylidene-6-phenyltetrahydro-4H-pyran-4-one]			134 ± 1	IC50 ([2]; 48 h incubation): > 150 µM
C=C1C(=O)C[C@H]([c-]2cccc2)O[C@H]1c1ccccc1.[Fe+2].c1cc[cH-]c1 (relative stereo) [Analog 13o, Trans-6-ferrocenyl-3-methylidene-2-phenyltetrahydro-4H-pyran-4-one]			> 100	IC50 ([2]; 48 h incubation): > 100 µM
C=C1C(=O)C[C@H](C(C)C)O[C@H]1c1ccccc1 (relative stereo) [Analog 13f, Trans-6-isopropyl-3-methylidene-2-phenyltetrahydro-4H-pyran-4-one]	8.45 ± 0.05	69.7 ± 2.16		IC50 ([4]; Homo sapiens, HUVEC): 11.9 ± 2.32 µM
C=C1C(=O)C[C@H](CC)O[C@H]1CCCC (relative stereo) [Analog 13b, Trans-2-butyl-6-ethyl-3-methylidenetetrahydro-4H-pyran-4-one]	39.15 ± 0.15	106.5 ± 0.5		
C=C1C(=O)C[C@H](c2ccc(OC)cc2)O[C@H]1CCCC (relative stereo) [Analog 13k, Trans-2-butyl-6-(4-methoxyphenyl)-3-methylidenetetrahydro-4H-pyran-4-one]	> 100	> 100		
Trans-2-buthyl-6-ferrocenyl-3-methylidenetetrahydro-4H-pyran-4-one [Analog 13n]			62.6 ± 0.61	IC50 ([2]; 48 h incubation): > 100 µM
C=C1C(=O)C[C@H](CC)O[C@H]1c1ccccc1 (relative stereo) [Analog 13c, Trans-6-ethyl-3-methylidene-2-phenyltetrahydro-4H-pyran-4-one]	11.8 ± 0.15	36 ± 0.41		
